A word on the CC50: it is the concentration that lowers cell viability or growth by half.

Assay [1] deals with Intestinal-type alkaline phosphatase (Homo sapiens, UniProt P09923). The assay is described as follows: Dose Response confirmation of uHTS hits from a small molecule inhibitors of human intestinal alkaline phosphatase via a luminescent assay. [Related pubchem assays (depositor defined):AID2544, AID2574]. Type of assay: functional.
For assay [2], the target named is G-protein coupled receptor 55 (Homo sapiens, UniProt Q9Y2T6). The assay is described as follows: GPR55 antagonists blocking LPI-driven arrestin recruitment, primary screen, imaging, U2OS, beta-arrestin-GFP, LPI agonist (AID 2013).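 Also: antagonist potency measured as reduced agonist-driven arrestin aggregation.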 Type of assay: functional. (Arrestin recruitment assays detect the binding of arrestin to an activated receptor.)
G-protein coupled receptor 55, sequence (Q9Y2T6 whole entry): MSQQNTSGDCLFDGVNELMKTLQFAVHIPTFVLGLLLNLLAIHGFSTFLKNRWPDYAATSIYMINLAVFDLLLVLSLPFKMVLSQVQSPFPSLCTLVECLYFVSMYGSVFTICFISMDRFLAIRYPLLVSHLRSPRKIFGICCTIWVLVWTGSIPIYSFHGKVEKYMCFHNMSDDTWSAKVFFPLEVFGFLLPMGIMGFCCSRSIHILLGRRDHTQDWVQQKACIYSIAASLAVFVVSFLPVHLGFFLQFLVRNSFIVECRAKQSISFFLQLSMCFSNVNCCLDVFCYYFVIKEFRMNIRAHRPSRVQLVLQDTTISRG
Assay [3] can be described thus: inhibition of K1F phage lysis, E. coli UTI89, bacterial capsule biogenesis inhibitors, alamar blue (AID 488966). Type of assay: functional.
A further assay addresses Tumor necrosis factor (Homo sapiens, UniProt P01375). The assay is described as follows: TNFa-triggered NF-kB activation inhibitors, SAR follow-up, cell-based, revised (AID 2337). Type of assay: functional.
Assay [4] addresses T1, Nucleotide-binding oligomerization domain-containing protein 1 (Homo sapiens, UniProt Q9Y239).
T1 sequence (Q9Y239 whole entry): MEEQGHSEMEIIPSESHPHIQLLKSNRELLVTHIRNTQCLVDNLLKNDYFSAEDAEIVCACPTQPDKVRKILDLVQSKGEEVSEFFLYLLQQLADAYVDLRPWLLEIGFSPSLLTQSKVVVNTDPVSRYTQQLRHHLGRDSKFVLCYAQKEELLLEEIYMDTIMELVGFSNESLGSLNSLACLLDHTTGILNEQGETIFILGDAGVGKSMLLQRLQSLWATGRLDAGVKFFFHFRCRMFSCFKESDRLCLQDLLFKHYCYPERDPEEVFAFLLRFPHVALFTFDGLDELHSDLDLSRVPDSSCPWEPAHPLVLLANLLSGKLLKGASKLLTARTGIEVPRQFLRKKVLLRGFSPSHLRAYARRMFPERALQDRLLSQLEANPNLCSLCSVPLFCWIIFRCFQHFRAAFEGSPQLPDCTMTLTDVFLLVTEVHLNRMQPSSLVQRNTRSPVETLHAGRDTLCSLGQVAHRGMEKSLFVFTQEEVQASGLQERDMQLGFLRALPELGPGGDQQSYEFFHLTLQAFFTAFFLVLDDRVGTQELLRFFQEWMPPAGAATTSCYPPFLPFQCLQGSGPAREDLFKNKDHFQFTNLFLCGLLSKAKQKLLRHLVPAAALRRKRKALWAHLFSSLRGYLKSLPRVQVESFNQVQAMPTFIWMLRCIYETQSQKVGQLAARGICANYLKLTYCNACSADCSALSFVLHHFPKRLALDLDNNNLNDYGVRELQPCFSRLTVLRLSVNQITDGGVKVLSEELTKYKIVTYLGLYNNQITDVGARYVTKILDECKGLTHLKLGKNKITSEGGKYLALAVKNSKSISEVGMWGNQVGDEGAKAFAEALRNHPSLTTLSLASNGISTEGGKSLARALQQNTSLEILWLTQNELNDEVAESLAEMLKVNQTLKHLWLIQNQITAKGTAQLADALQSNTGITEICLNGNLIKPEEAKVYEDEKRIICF
The assay is described as follows: NOD1 signaling inhibitors, SAR follow-up, revised (AID 2333). Type of assay: functional.

For assay [5], the target named is T2, Nucleotide-binding oligomerization domain-containing protein 2 (Homo sapiens, UniProt Q9HC29). The assay is described as follows: NOD2 signaling inhibitors, cell-based, luminescence, uHTS, HEK293 (AID 1566). Type of assay: functional.
T2 sequence (Q9HC29 whole entry, the tested form may be a part): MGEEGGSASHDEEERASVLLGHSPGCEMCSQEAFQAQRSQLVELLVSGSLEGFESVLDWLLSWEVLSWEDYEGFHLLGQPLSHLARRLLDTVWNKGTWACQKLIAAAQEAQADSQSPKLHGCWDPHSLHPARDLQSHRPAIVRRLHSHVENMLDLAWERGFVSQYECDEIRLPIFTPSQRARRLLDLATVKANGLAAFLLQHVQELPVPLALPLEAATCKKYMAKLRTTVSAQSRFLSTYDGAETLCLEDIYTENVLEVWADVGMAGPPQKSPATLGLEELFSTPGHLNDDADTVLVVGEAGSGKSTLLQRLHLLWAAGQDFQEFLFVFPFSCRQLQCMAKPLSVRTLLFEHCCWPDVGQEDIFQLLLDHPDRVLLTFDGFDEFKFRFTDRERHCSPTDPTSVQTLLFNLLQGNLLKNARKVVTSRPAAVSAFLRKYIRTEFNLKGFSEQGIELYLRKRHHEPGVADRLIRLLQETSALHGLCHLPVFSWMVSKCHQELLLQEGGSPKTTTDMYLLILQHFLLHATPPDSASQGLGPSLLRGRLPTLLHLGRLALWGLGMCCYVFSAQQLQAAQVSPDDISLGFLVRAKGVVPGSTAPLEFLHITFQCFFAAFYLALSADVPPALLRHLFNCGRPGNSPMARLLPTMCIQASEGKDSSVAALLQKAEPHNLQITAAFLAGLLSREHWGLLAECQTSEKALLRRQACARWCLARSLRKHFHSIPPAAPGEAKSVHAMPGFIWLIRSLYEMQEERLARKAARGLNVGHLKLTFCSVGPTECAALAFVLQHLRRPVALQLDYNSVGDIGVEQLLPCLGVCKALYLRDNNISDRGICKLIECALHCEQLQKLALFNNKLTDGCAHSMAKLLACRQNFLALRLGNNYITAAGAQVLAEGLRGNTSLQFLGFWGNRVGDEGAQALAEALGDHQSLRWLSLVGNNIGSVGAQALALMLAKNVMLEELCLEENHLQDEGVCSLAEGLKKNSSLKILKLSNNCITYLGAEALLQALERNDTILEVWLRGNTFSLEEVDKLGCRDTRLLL
For assay [6], the target named is T2, Nucleotide-binding oligomerization domain-containing protein 2. The assay is described as follows: PubChem AID 2334. Type of assay: functional.
The target in assay [7] is Female germline-specific tumor suppressor gld-1 (Caenorhabditis elegans, UniProt Q17339). The assay is described as follows: inhibitors of GLD-1 binding to TGE RNA, dose response, biochemical, fluorescence polarization, C. elegans (AID 2802).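 Also: fluorescence polarization of labeled TGE RNA bound by purified gld-1 protein.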 Background: Polarisation of emitted light reports the rotation of a fluorescent probe.
A further assay addresses Protein Rev (Human immunodeficiency virus type 1 group M subtype B (isolate HXB2)(HIV-1), UniProt P04618). The assay is described as follows: inhibitors of Rev binding to RRE RNA, dose response, biochemical, fluorescence polarization, HIV-1 (AID 434976). Also noted: species or system Human immunodeficiency virus 1.
Assay [8] is described as follows: HepG2 cell cytotoxicity, dose response, cytotoxicity control for non-replicating M. tuberculosis project (AID 489018). Type of assay: functional. The following applies: Mycobacterium tuberculosis.
Another assay is described as follows: cells. Type of assay: functional.
A short description of assay [9]: THP-1 cell cytotoxicity, dose response, cytotoxicity control for non-replicating M. tuberculosis project (AID 489025). Type of assay: functional.
Assay [10] has as its target T3, Voltage-dependent T-type calcium channel subunit alpha-1H (Homo sapiens, UniProt O95180). Type of assay: functional.
Assay [11] concerns the target T4, Corticotropin-releasing factor receptor 2/Corticotropin-releasing factor-binding protein (Homo sapiens, UniProt P24387+Q13324).
T4 sequence (Q13324 whole entry): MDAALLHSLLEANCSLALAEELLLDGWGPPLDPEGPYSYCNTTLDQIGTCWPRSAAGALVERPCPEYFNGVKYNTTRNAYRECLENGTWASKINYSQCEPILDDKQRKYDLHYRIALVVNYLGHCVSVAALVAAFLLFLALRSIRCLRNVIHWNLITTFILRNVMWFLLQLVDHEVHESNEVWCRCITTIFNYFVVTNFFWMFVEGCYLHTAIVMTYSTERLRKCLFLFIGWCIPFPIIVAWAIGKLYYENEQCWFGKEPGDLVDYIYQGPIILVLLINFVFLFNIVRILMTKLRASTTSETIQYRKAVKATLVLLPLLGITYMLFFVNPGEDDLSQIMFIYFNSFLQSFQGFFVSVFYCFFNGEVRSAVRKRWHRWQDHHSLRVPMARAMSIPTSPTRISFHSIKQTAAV
T4 sequence (P24387 whole entry): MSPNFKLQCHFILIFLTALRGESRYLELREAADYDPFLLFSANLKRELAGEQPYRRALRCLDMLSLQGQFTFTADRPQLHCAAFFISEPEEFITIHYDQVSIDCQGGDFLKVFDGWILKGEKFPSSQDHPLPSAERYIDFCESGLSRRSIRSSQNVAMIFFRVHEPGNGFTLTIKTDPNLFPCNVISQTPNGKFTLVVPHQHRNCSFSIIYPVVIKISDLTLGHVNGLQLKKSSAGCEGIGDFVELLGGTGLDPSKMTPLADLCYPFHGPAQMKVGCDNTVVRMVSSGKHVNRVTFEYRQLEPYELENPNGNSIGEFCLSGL
The assay is described as follows: activators of CRF receptor 2 with binding protein – uHTS hits, confirmation (AID 602473). Type of assay: functional. Conditions: read-out: EC50_Mean.

In assay [12] the target is T4, Corticotropin-releasing factor receptor 2/Corticotropin-releasing factor-binding protein. The assay is described as follows: Dose Response confirmation of uHTS hits for small molecule antagonists of the CRF-binding protein and CRF-R2 receptor complex. Type of assay: functional. Conditions: read-out: IC50_Mean.
For assay [13], the target named is T5, Kappa-type opioid receptor (Homo sapiens, UniProt P41145). The assay is described as follows: KOR antagonists by imaging, SAR follow-up, image-based (AID 2348). Type of assay: functional.
T5 sequence (P41145 whole entry): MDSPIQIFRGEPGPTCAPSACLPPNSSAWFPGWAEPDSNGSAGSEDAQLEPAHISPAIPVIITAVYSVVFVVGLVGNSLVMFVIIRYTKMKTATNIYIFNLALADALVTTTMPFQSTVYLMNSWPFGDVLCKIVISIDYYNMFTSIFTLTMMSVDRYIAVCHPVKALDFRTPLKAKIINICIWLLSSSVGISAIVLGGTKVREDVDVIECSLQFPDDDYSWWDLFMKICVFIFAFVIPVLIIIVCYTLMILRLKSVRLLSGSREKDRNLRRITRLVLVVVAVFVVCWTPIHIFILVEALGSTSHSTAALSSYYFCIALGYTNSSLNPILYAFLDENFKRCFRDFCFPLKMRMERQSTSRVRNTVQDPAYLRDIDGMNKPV
Assay [14] addresses T5, Kappa-type opioid receptor. The assay is described as follows: kappa opioid receptor blockers, cell-based, luminescence, beta-arrestin, SAR follow-up (AID 2285). Type of assay: functional.
Assay [15] deals with T6, Delta-type opioid receptor (Homo sapiens, UniProt P41143). The assay is described as follows: DOR antagonists, SAR follow-up, image-based (AID 2357). Type of assay: functional.
T6 sequence (P41143 whole entry): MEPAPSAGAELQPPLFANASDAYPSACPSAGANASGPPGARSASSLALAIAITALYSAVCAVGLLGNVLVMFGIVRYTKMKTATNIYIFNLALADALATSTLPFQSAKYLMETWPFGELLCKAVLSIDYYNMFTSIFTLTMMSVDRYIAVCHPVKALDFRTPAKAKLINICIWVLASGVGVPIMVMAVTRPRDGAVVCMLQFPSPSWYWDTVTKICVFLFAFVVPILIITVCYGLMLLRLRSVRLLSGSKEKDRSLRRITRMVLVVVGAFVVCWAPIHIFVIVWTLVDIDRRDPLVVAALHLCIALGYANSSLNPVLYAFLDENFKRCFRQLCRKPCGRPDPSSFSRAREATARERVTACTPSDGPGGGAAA
Assay [16] deals with T7, Mu-type opioid receptor (Homo sapiens, UniProt P35372). The assay is described as follows: MOR agonists by imaging, SAR follow-up, image-based (AID 2352). Type of assay: functional.
T7 sequence (P35372 whole entry): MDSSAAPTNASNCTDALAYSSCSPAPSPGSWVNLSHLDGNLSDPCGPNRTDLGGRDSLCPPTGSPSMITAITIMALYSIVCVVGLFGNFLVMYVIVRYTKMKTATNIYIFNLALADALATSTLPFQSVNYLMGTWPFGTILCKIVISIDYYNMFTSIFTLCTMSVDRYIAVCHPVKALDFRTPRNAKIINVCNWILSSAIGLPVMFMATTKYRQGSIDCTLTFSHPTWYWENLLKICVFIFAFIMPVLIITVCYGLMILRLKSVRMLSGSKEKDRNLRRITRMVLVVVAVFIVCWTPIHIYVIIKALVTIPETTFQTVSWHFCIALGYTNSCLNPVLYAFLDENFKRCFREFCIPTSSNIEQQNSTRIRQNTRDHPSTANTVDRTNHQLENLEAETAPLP
The target in assay [17] is T7, Mu-type opioid receptor. The assay is described as follows: MOR antagonists, SAR follow-up, image-based (AID 2420).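 Also: compounds added before stimulation of receptor with agonist DAMGO.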 Type of assay: functional.
Assay [18] concerns the target T5, Kappa-type opioid receptor. The assay is described as follows: KOR agonist analogs, imaging readout, SAR follow-up, image-based (AID 2359). Type of assay: functional.
The target of assay [19] is T6, Delta-type opioid receptor. The assay is described as follows: DOR agonists, SAR follow-up, image-based (AID 2370). Type of assay: functional.
Assay [20] addresses T8, Voltage-gated N-type calcium channel alpha-1B subunit/Amyloid beta A4 precursor protein-binding family A member 1 (Homo sapiens, UniProt Q00975+Q02410). The assay is described as follows: disruptors of Mint-PDZ/N-type channel peptide interaction – biochemical, HTRF, set 2, SAR follow-up (AID 434980). Type of assay: functional. For orientation: Time-resolved FRET reads energy transfer from a long-lived donor to a nearby acceptor.

Assay [21] deals with T8, Voltage-gated N-type calcium channel alpha-1B subunit/Amyloid beta A4 precursor protein-binding family A member 1. The assay is described as follows: disruptors of Mint-PDZ/N-type channel peptide interaction – biochemical, HTRF, SAR follow-up (AID 2489). Type of assay: functional.
Assay [22] concerns the target T3, Voltage-dependent T-type calcium channel subunit alpha-1H. The assay is described as follows: Cav3.2 T-type channel inhibitors, cell-based, synthetic library set 1, calcium flux (AID 493022). Type of assay: functional.

Calls of active or inactive are those of the source. Where only a bound is given, the exact number is not on record here.

T3 sequence (O95180 whole entry): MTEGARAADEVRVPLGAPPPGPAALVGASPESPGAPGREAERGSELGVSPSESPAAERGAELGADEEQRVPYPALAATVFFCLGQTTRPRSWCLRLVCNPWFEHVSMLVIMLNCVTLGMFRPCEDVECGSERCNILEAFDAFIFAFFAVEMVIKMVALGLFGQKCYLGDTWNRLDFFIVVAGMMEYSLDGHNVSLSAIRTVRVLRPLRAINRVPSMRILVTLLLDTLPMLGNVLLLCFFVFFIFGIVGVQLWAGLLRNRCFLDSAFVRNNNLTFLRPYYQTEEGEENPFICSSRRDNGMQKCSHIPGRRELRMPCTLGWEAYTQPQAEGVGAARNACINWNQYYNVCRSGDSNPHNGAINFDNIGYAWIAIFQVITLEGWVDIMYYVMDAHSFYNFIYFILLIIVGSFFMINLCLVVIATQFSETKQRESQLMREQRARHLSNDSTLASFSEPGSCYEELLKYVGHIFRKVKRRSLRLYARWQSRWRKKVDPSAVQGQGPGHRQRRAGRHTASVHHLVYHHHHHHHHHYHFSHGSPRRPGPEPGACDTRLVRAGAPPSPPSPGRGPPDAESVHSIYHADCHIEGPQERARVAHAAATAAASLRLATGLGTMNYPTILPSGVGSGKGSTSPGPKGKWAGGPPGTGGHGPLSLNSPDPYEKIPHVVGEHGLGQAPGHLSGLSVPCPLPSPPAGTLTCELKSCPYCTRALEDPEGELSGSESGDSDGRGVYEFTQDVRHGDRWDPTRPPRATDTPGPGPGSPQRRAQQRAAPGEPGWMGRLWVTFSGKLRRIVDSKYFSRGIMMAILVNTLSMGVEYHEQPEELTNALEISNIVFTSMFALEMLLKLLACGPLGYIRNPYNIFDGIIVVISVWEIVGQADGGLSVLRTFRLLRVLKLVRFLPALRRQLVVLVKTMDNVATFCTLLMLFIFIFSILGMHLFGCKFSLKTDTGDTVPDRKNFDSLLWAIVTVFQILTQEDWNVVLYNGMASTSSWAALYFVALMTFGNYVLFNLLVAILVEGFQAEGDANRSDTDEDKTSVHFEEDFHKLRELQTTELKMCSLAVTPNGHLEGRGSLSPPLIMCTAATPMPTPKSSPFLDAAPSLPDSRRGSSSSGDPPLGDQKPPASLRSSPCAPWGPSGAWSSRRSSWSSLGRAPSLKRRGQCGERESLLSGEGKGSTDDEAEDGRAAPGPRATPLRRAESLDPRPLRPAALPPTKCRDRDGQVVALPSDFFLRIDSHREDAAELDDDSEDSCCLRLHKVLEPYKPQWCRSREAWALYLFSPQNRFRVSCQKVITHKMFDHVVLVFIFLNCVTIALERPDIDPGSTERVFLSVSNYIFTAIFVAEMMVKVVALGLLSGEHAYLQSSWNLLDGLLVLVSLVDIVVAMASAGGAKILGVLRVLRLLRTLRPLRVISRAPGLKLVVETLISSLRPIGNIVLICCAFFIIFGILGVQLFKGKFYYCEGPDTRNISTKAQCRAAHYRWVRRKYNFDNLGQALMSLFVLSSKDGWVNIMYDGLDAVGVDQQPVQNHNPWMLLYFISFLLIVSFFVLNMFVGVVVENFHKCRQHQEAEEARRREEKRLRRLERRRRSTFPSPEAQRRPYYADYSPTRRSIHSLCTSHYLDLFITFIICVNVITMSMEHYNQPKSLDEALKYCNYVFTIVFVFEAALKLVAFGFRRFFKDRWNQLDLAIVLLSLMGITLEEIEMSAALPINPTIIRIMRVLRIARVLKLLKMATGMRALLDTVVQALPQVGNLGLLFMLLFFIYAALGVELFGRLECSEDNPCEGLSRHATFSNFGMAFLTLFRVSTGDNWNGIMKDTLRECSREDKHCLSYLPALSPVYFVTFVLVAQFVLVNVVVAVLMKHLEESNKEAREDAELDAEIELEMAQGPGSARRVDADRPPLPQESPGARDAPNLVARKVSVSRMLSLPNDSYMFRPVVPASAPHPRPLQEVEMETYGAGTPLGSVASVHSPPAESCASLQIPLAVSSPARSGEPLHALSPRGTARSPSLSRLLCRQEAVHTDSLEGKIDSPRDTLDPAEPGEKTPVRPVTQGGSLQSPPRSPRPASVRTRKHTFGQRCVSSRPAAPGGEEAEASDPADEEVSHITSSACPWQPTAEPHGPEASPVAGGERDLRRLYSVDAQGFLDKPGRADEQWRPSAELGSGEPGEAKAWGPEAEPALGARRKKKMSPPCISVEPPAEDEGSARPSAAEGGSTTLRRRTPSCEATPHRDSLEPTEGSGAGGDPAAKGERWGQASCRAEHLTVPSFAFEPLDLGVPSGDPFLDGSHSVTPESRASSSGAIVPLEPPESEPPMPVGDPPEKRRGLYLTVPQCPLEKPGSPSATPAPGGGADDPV
Protein Rev, sequence (P04618 whole entry): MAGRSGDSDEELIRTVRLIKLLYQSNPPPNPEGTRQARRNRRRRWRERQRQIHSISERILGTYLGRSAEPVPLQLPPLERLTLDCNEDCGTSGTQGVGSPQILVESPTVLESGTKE

With `c1ccc(-c2nnc(CN3CCC4(CC3)OCCO4)o2)cc1`, the IC50 in assay [1] is > 100 µM (inactive).

In the case of `Nc1nc(C23CC4CCC(CC(C4)C2)C3)cs1`, the IC50 in assay [2] is 7.48 µM (active).

On to `CCOc1ccc(NC(=O)C2CCC(C)(C(=O)O)C2(C)C)cc1` (stereo not given), for which, in assay [3], the IC50 was > 300 µM (active).

Take `Cc1nn(-c2ccccc2)c2nc(C(Cl)(Cl)Cl)[nH]c(=O)c12`: the IC50 was 6.62 µM (active) on Tumor necrosis factor, 4.5 µM (active) in assay [4] and 5.9 µM (active) in assay [6]. The EC50 in assay [5] is 10.5 µM (active).

Turning to `CCN(CC)S(=O)(=O)c1ccc(N2CCCC2)c(NS(=O)(=O)c2ccc(F)cc2)c1`, the IC50 was 4.04 µM (active) in assay [7] and > 75.4 µM (not active) at Protein Rev.

As for `Cc1ccc(-n2cc(CNCCc3cscn3)c(-c3ccc(F)cc3)n2)cc1`, the results for the CC50 in assay [8] and in [9] were 16.5 µM (active) and 23.1 µM (active), respectively. The IC50 in the assay “cells” is 12.7 µM (active).

As to `COc1ccc(C(c2nnnn2Cc2ccccc2)N2CCN(c3ccccc3)CC2)cc1` (stereo not given), the EC50 in assay [10] is 3.34 µM (active); in [11], > 53 µM (inactive). Moreover, the IC50 in assay [12] is > 47.1 µM (inactive).

For the compound `Cc1ccc(-n2[nH]c(C)c(C=Nc3ccc(Cl)c4cccnc34)c2=O)cc1`, the IC50 in assay [13] was > 32 µM (inactive); in assay [14], > 10 µM (inactive); in assay [15], > 32 µM (inactive); at Mu-type opioid receptor [17], > 32 µM (inactive). Besides, the EC50 on Mu-type opioid receptor [16] was 2.73 µM (active); in assay [18] it was 3.85 µM (active); in [19] it was 14.8 µM (inactive).

For the compound `CC12C=CC(C)(O1)C1C(=O)N(c3ccccc3)C(=O)C12` (stereo not given), the IC50 in assay [20] is 10.5 µM (active); in assay [21], 11.7 µM (active).

As to `O=C(COc1ccc(F)cc1)Nc1nnc(-c2ccc3c(c2)CCCC3)o1`, the EC50 in assay [22] was 2.1 µM (active).
